For assay [1], the system named is THP1Blue cells, TLR1/TLR2/TLR4. The assay can be described thus: THP1Blue NF-κB-SEAP reporter assay, non-NOD agonists (Pam3CSK4, LPS, HKLM). As to conditions: Pam3CSK4, LPS or HKLM. The format is cell-based, human. Here is the method:
(§1) For HEKBlue assay, cells were seeded into clear 96‐well plates at 7.5 × 10^3 cells/well and allowed to attach for 48 h. On the day of the experiment, media was changed to 100 μl of HEKBlue detection media (InvivoGen). Inhibitors were diluted and added in 0.5 μl DMSO 15 min prior to the addition of 1 ng/ml L18‐MDP (InvivoGen). After 8–9 h, absorbance at 620 nm was measured using Victor3V plate reader (Perkin Elmer, Waltham, MA). Values of media‐only wells were subtracted and %inhibition for each compound concentration relative to the DMSO/L18‐MDP‐treated controls was calculated. […] After induction, 20 μl of media was mixed with 180 μl of QUANTI‐Blue reagent (InvivoGen) and incubated at 37°C for 3–4 h, followed by absorbance measurement at 620 nm. IC50 values were calculated as described for HEKBlue assay. […]
(§2) For HEKBlue assay, cells were seeded into clear 96 well plates at 7.5x10^3 cells/well and allowed to attach for 48 h. […] After 8-9 h, absorbance at 620 nm was measured using Victor3V plate reader (Perkin Elmer, Waltham, MA). Values of media-only wells were subtracted and %inhibition for each compound concentration relative to the DMSO/L18-MDP-treated controls were calculated.
(§3) Inhibition values + StDev were fitted by non-linear regression using Prism software (GraphPad Software, La Jolla, CA) to calculate IC50 values. […] IC50 values were calculated as described for HEKBlue assay. […]
Background: Reporter assays use an easily measured gene product as a stand-in for the process of interest.

For a further assay, the system named is THP1Blue cells, NOD2. As to the kind of experiment: THP1Blue NF-κB-SEAP reporter assay, MDP (NOD2). The format is cell-based. The note with it: Homo sapiens; MDP 10 μg/ml; read-out: THP1-Blue NF-κB Inhibition IC50 (MDP). How it is done: as §1, §2, §3

For `CCCS(=O)(=O)Nc1cc(-c2cc(-c3ccc(N4CCNCC4)cc3)cnc2N)cc(F)c1OC` [CSLP37], the “effect on NF-κB responses to non-NOD agonists” value in assay [1] was “no detected effect”. The IC50 (as a rule, the point on the concentration scale where inhibition reaches its midpoint) in the assay with THP1Blue cells, NOD2 turned out to be 22.5 ± 2.1 nM.
Consider `CCCS(=O)(=O)Nc1cc(-c2cc(-c3ccc(N4CCNCC4)cc3)cnc2N)cc(OC)c1OC` [CSLP43], for which, in assay [1], the “effect on NF-κB responses to non-NOD agonists” value was “no detected effect”. In addition, in the assay on THP1Blue cells, NOD2, the 50% inhibitory concentration (IC50) was 1.34 ± 0.08 nM.

Source of the values: article PMC6120666 (The EMBO Journal, 2018).
